Data from patent US9593084B2 (Parion Sciences, Inc., priority 2012, dated 2017).
Marks after values point to notes of the source that are not given here.

Key:
Sheep MCC = experiment: Mucociliary clearance (MCC) studies in sheep; format: in vivo
Procedure, shortened: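 Adult sheep, nasally intubated, received aerosolized test agent (4 mL, ± HS immediately after) over 10-15 min; 99mTc-sulfur colloid aerosol given 4 or 8 h later. Lung radioactivity counted by gamma camera every 5 min for 1 h; clearance analysed as initial 30-min slope, AUC over 1 h, and maximum 1-h clearance.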

[1] = Plasma potassium levels in sheep of the MCC study; format: in vivo
Description: In these studies, adult sheep were restrained and nasally intubated with an endotracheal tube. Aerosolized test articles were administered over 10-15 minutes to sheep. Radiolabeled ^99mTc-sulfur colloid (TSC, 3.1 mg/mL; containing approximately 20 mCi) was then administered at a specified time four or eight hours after test article. The radiolabeled aerosol was administered through the endotracheal tube for about 5 minutes. The sheep were then extubated, and total radioactive counts in the lung were measured every 5 minutes for a 1-hour observation period. The rate of radiolabel clearance from the lung is representative of the MCC rate in the animal. The advantage of this system is that it closely simulates the human lung environment. The model also allows for the collection of simultaneous PK/PD information through plasma and urine sampling over the test period. There are also several techniques to measure the drug concentrations on the airway surface during the MCC measurements. These include the collection of exhaled breath condensates or a filter paper method to obtain ASL via bronchoscopy.
The compound of Comparative Example 1 can be seen on page 15 of US 2005/0080093 and as Compound 2 on page 90 of WO 2008/031048, and as Compound 2 on pages 42-43 of WO 2008/031028. […] In order to evaluate this potential, it is beneficial to have MCC activity in vivo and not cause elevation of plasma potassium at the useful dose. One model to assess this is the sheep MCC model described below.

[2] = sheep, aerosol, 0.24 nmol/kg (3 μM), MCC at 4 h post-dose
[3] = sheep, aerosol, 0.24 nmol/kg (3 μM), MCC at 8 h post-dose

N=C(NCCCCc1ccc(C[C@H](N)C(=O)Nc2ccc(CCCN(C[C@H](O)[C@@H](O)[C@H](O)[C@H](O)CO)C[C@H](O)[C@@H](O)[C@H](O)[C@H](O)CO)cc2)c2ccccc12)NC(=O)c1nc(Cl)c(N)nc1N [Compound 33, 3,5-diamino-N—(N-(4-(4-((S)-2-amino-3-(4-(3-(bis((2S,3R,4R,5R)-2,3,4,5,6-pentahydroxyhexyl)amino)propyl)phenylamino)-3-oxopropyl)naphthalen-1-yl)butyl)carbamimidoyl)-6-chloropyrazine-2-carboxamide]
benefit to risk ratio (Sheep MCC; sheep MCC model): greater than 1000 | effect on MCC compared to vehicle (Sheep MCC; sheep, 0.24 nmol/kg (3 μM), 4 h post-dose): enhanced MCC compared to vehicle control | Initial Slope (4.0-4.5 h) (Sheep MCC; sheep, 0.240 nmol/kg (30 μM), MCC at 4 h post-dose): 37.5* (4) | AUC (% CI × h) (Sheep MCC; sheep, 0.240 nmol/kg, MCC at 4 h post-dose): 17.4* (4) % CI × h | effect of hypertonic saline (HS) on the MCC effect (Sheep MCC; sheep, 7% HS dosed immediately following 0.24 nmol/kg, MCC eight hours after combined dosing): HS increased the effect of Compound 33 on MCC | duration of action on MCC vs. vehicle (Sheep MCC; sheep, 8 hours post dose): enhanced duration action of MCC vs. vehicle | AUC (% Cl-h) (Sheep MCC; [2]): 17.4* (4) % Cl-h | Initial Slope (4.0-4.5 h) (Sheep MCC; [2]): 37.5* (4) | AUC (% Cl-h) (Sheep MCC; [3]): 11.7* (4) % Cl-h | Initial Slope (8.0-8.5 h) (Sheep MCC; [3]): 25.8* (4) | MCC Highest Submaximal Dose (Sheep MCC; sheep, solution concentration given beside the dose): <0.24 nmol/kg (3 μM) | Therapeutic Ratio (Benefit/Risk) (Sheep MCC; sheep, top dose without plasma potassium elevation vs MCC highest submaximal dose): >100 | effect on plasma potassium ([1]; sheep of the MCC study, at efficacious dose): free of potassium elevations | Therapeutic Index, times greater renal safety than Comparative Example 1 ([1]; sheep, versus Comparative Example 1): more than 1,000
